Data as given in patent US4410716A, “Dibenzo[a,d]cycloheptene derivatives and process for production thereof” (Toa Eiyo Kagaku Kogyo Co. Ltd., priority 1979, dated 1983).
“Also recorded” adds a separate entry of the source. Like-named read-outs stand apart in the source and are kept apart here.

Experiments:
[1] = system: gastric wall; assay: in vivo; conditions: rat, in vivo, po
Description: (§1) The anti-inflammatory activity, analgesic activity and ulcerogenic activity of the novel dibenzo[a,d]cycloheptene derivatives of this invention were tested by the following methods.
Sixteen hours later, the rats were sacrificed under ether anesthesia.
*Calculated by the Adami's method.
**Calculated by the LitchfieldWilcoxon's method. The parenthesized values
show 95% confidence limits.

[2] = system: edema (carrageenin, hind paw); assay: Anti-inflammatory activity: carrageenin hind paw edema in rats, oral administration; type: in vivo, male Donryu rats; conditions: for inhibition in vivo at 25 mg/kg / inhibition in vivo at 100 mg/kg / ED40 / inhibition in vivo at 5 mg/kg / inhibition in vivo at 20 mg/kg / inhibition in vivo at 50 mg/kg: Rattus norvegicus; for inhibition in vivo at 25 mg/kg: 25 mg/kg oral; for inhibition in vivo at 25 mg/kg / inhibition in vivo at 100 mg/kg / inhibition in vivo at 5 mg/kg / inhibition in vivo at 20 mg/kg / inhibition in vivo at 50 mg/kg: read-out: Percent edema inhibition; for inhibition in vivo at 100 mg/kg: 100 mg/kg oral; for ED40: dose causing 40% inhibition, dose-response line, read-out: ED40 value; for ED40 / anti-inflammatory activity (in words): oral; for anti-inflammatory activity (in words): carrageenin edema, rat; for inhibition in vivo at 5 mg/kg: 5 mg/kg oral; for inhibition in vivo at 20 mg/kg: 20 mg/kg oral; for inhibition in vivo at 50 mg/kg: 50 mg/kg oral
Description: as §1
Each of test compounds was orally administered to groups of male Donryu rats weighing 130 to 150 g (8 to 10 rats per group), and one hour later, 0.1 ml of a 1% carrageenin solution was injected subcutaneously into the hind paw of each rat. After injection of carrageenin, the volume of the paw was measured at predetermined periods, and the percent inhibition against a control group was calculated.

| SMILES | inhibition in vivo at 25 mg/kg ([2]; 1 hour after carrageenin) | inhibition in vivo at 25 mg/kg ([2]; 2 hours after carrageenin) | inhibition in vivo at 25 mg/kg ([2]; 3 hours after carrageenin) | inhibition in vivo at 25 mg/kg ([2]; 4 hours after carrageenin) | inhibition in vivo at 100 mg/kg ([2]; 1 hour after carrageenin) | inhibition in vivo at 100 mg/kg ([2]; 2 hours after carrageenin) | inhibition in vivo at 100 mg/kg ([2]; 3 hours after carrageenin) | inhibition in vivo at 100 mg/kg ([2]; 4 hours after carrageenin) | ED40 ([2]; 3 hours after carrageenin) | anti-inflammatory activity (in words) [2] | also measured |
| --- | --- | --- | --- | --- | --- | --- | --- | --- | --- | --- | --- |
| O=C(O)Cc1ccc2c(c1)C(=O)Cc1ccccc1C2 [Ia, 10,11-dihydro-11-oxo-5H-dibenzo[a,d]cycloheptene-2-acetic acid] | 28.2% | 41.8% | 44.5% | 41% | 33% | 50% | 53.7% | 52.2% | 13 mg/kg | excellent anti-inflammatory activity; also recorded: evidently show anti-inflammatory activity although their activity is weaker than that of indomethacin | ulcerogenic activity (in words) [1]: much weaker than that of indomethacin |
| O=C(O)Cc1ccc2c(c1)Cc1ccccc1CC2=O [Ic, 10,11-dihydro-11-oxo-5H-dibenzo[a,d]cycloheptene-3-acetic acid] | 32.8% | 29.4% | 25.5% | 24% | 51.4% | 44.7% | 40.7% | 39.3% | 94 mg/kg | excellent anti-inflammatory activity; also recorded: evidently show anti-inflammatory activity although their activity is weaker than that of indomethacin | – |
| O=C(O)Cc1ccc2c(c1)CC(=O)c1ccccc1C2 [Id, 10,11-dihydro-10-oxo-5H-dibenzo[a,d]cycloheptene-2-acetic acid] | 36% | 36% | 21.4% | 18.4% | 44.6% | 39% | 28.1% | 21.4% | – | – | – |
| O=C(O)Cc1ccc2c(c1)CC(=O)c1cc(Cl)ccc1C2 [Ie, 8-chloro-10,11-dihydro-10-oxo-5H-dibenzo[a,d]cycloheptene-2-acetic acid] | 4.5% | 8.6% | 3% | 2.3% | -0.7% | 1.3% | -4.2% | -1.8% | – | – | – |
| O=C(O)Cc1ccc2c(c1)Cc1ccccc1C(=O)C2 [If, 10,11-dihydro-10-oxo-5H-dibenzo[a,d]cycloheptene-3-acetic acid] | -22.6% | -16.8% | -12.3% | -8.7% | -23.5% | -21.4% | -9.1% | -5.5% | – | – | – |
| COC1=Cc2ccccc2Cc2ccc(CC(=O)O)cc21 [Ig, 11-methoxy-5H-dibenzo[a,d]cycloheptene-2-acetic acid] | – | – | – | – | 25.5% | 40.6% | 42.6% | 37.1% | – | – | – |
| COC1=Cc2ccccc2Cc2ccc(C(C)C(=O)O)cc21 (stereo not drawn) [Ih, 2-(11-methoxy-5H-dibenzo[a,d]cyclohepten-2-yl)propionic acid] | – | – | – | – | – | – | – | – | 77 mg/kg | excellent anti-inflammatory activity; also recorded: evidently show anti-inflammatory activity although their activity is weaker than that of indomethacin | inhibition in vivo at 5 mg/kg ([2]; 1 hour after carrageenin): 18.4%; inhibition in vivo at 5 mg/kg ([2]; 2 hours after carrageenin): 24.7%; inhibition in vivo at 5 mg/kg ([2]; 3 hours after carrageenin): 12%; inhibition in vivo at 5 mg/kg ([2]; 4 hours after carrageenin): 12.6%; inhibition in vivo at 20 mg/kg ([2]; 1 hour after carrageenin): 28.1%; inhibition in vivo at 20 mg/kg ([2]; 2 hours after carrageenin): 22.9%; inhibition in vivo at 20 mg/kg ([2]; 3 hours after carrageenin): 26.8%; inhibition in vivo at 20 mg/kg ([2]; 4 hours after carrageenin): 26.8%; inhibition in vivo at 50 mg/kg ([2]; 1 hour after carrageenin): 35.6%; inhibition in vivo at 50 mg/kg ([2]; 2 hours after carrageenin): 32.9%; inhibition in vivo at 50 mg/kg ([2]; 3 hours after carrageenin): 35.4%; inhibition in vivo at 50 mg/kg ([2]; 4 hours after carrageenin): 35.7% |
